Measured values reported in patent publication US20210292330A1, “PYRROLIDINE-FUSED HETEROCYCLES” (Erasca, Inc., priority 2020, published 2021).

Molecular target: T1, KRAS 4B G12C protein (Homo sapiens, UniProt P01116, G12C)
T1 construct: This protein contained 188 amino acids in total, including an N-terminal 6-Histidine tag; made in house; host or cells: E. coli BL21
Assay: In vitro covalent adduct formation (CAF) assay by LC-MS
Assay type: binding
Settings: compound 10 μM, protein 5 μM, 22° C., percentage of protein bound by the compound
How it was run: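 Percent of protein covalently modified was quantified from intact-mass LC-MS ratios of free versus adducted protein, adducts within 1 Da of expected mass. Reactions: 10 μM compound, 5 μM His-TEV-KRAS 4B G12C (1-169) in TBS pH 7.4, 4% DMSO, 22° C., one hour, run in duplicate.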

CAF (10 minutes/60 minutes) at 10 micromolar: 10 minutes | CAF (10 minutes/60 minutes) at 10 micromolar: 60 minutes | SMILES
64% | 95% | C=C(F)C(=O)N1CCN(c2nc(OC[C@@H]3CCCN3C)nc3c2CN(C2CCc4cccc(Cl)c42)C3)C[C@@H]1CC#N (stereo partly shown) [1-127]
52% | 63% | C=CC(=O)N1CCN(c2nc(OC[C@@H]3C[C@H](F)CN3C)nc3c2CN(C2CCc4ccccc42)C3)C[C@@H]1CC#N (stereo partly shown) [1-128]
26% | 64% | C=CC(=O)N1CCN(c2nc(OCCOC)nc3c2CN(C2CCc4ccccc42)C3)C[C@@H]1CC#N (stereo partly shown) [1-129]
84% | 90% | C=CC(=O)N1CCN(c2nc(OC[C@@H]3CC(F)(F)CN3C)nc3c2CN(C2CCc4ccccc42)C3)C[C@@H]1CC#N (stereo partly shown) [1-133]
38% | 54% | C=C(F)C(=O)N1CCN(c2nc(OC[C@@H]3CCCN3C)nc3c2CN(C2CCc4ccccc42)C3)C[C@@H]1CC#N (stereo partly shown) [1-138]
0% | 5% | C=C(F)C(=O)N1CCN(c2nc(OC[C@@H]3CCCN3C)nc3c2CN(C2CCc4ccccc42)C3)C[C@@H]1CC#N (stereo partly shown) [1-139]
51% | 71% | C=CC(=O)N1CCN(c2nc(OC[C@@H]3CCCN3CC(F)(F)F)nc3c2CN(C2CCc4ccccc42)C3)C[C@@H]1CC#N (stereo partly shown) [1-141]
7% | 36% | C=CC(=O)N1CCN(c2nc(OCC3CC3)nc3c2CN(C2CCc4ccccc42)C3)C[C@@H]1CC#N (stereo partly shown) [1-142]
15% | 35% | C#CC[C@H]1CN(c2nc(OC[C@@H]3CCCN3C)nc3c2CN(C2CCc4ccccc42)C3)CCN1C(=O)C=C (stereo partly drawn) [1-144, 1-((2S)-4-(6-(2,3-dihydro-1H-inden-1-yl)-2-(((S)-1-methylpyrrolidin-2-yl)methoxy)-6,7-dihydro-5H-pyrrolo[3,4-d]pyrimidin-4-yl)-2-(prop-2-yn-1-yl)piperazin-1-yl)prop-2-en-1-one]
60% | 74% | C=CC(=O)N1CCN(c2nc(OC[C@@H]3CCCN3C)nc3c2CN(C2CCc4ccccc42)C3)C[C@H]1C#N (stereo partly shown) [1-145]
7% | 33% | C=CC(=O)N1CCN(c2nc(CC[C@@H]3CCCN3C)nc3c2CN(C2CCc4ccccc42)C3)C[C@@H]1CC#N (stereo partly shown) [1-146]
78% | 86% | C=CC(=O)N1CCN(c2nc(OC[C@@H]3CCCN3CC(F)F)nc3c2CN(C2CCc4ccccc42)C3)C[C@@H]1CC#N (stereo partly shown) [1-147]
21% | 31% | C=CC(=O)N1CCN(c2nc(OC[C@@H]3CCCN3C)nc3c2CN(C2CCc4ccccc42)C3)[C@@H](C#N)C1 (stereo partly shown) [1-150]
81% | 91% | C=CC(=O)N1CCN(c2nc(OC[C@@H]3CCCN3CCF)nc3c2CN(C2CCc4ccccc42)C3)C[C@@H]1CC#N (stereo partly shown) [1-151]
2% | 19% | C=CC(=O)N1CCN(c2nc(OC3CC3)nc3c2CN(C2CCc4ccccc42)C3)C[C@@H]1CC#N (stereo partly shown) [1-152]
46% | 78% | C=C(F)C(=O)N1CCN(c2nc(OC[C@@H]3CCCN3C)nc3c2CN(C2CCc4cccc(Cl)c42)C3)C[C@@H]1CC#N (stereo partly shown) [1-153]
52% | 82% | C=C(F)C(=O)N1CCN(c2nc(OC[C@@H]3CCCN3C)nc3c2CN(C2CCc4cccc(Cl)c42)C3)C[C@@H]1CC#N (stereo partly shown) [1-154]
66% | 82% | C=CC(=O)N1CCN(c2nc(OC[C@@H]3CCCN3C)nc3c2CN(C2CCc4ccccc42)C3)C[C@@H]1C#N (stereo partly drawn) [1-155, (2R)-1-acryloyl-4-(6-(2,3-dihydro-1H-inden-1-yl)-2-(((S)-1-methylpyrrolidin-2-yl)methoxy)-6,7-dihydro-5H-pyrrolo[3,4-d]pyrimidin-4-yl)piperazine-2-carbonitrile]
11% | 29% | C=CC(=O)N1CCN(c2nc(OC[C@@H]3CCCN3C)nc3c2CN(C2CCc4ccccc42)C3)[C@H](C#N)C1 (stereo partly shown) [1-156]
10% | 19% | C=CC(=O)N1CCN(c2nc(OC[C@@H]3CCCN3C)nc3c2CN(C2CCc4ccccc42)C3)C[C@@H]1C(N)=O (stereo partly drawn) [1-159, (2R)-1-acryloyl-4-(6-(2,3-dihydro-1H-inden-1-yl)-2-(((S)-1-methylpyrrolidin-2-yl)methoxy)-6,7-dihydro-5H-pyrrolo[3,4-d]pyrimidin-4-yl)piperazine-2-carboxamide]
2% | 12% | C#C[C@H]1CN(C(=O)C=C)CCN1c1nc(OC[C@@H]2CCCN2C)nc2c1CN(C1CCc3ccccc31)C2 (stereo partly drawn) [1-162, 1-[(3S)-4-[6-(2,3-dihydro-1H-inden-1-yl)-2-{[(2S)-1-methylpyrrolidin-2-yl]methoxy}-5H,7H-pyrrolo[3,4-d]pyrimidin-4-yl]-3-ethynylpiperazin-1-yl]prop-2-en-1-one]
 | NA/ 55% | C=CC(=O)N1CCN(c2nc(OC[C@@H]3CCCN3C)nc3c2CN(C2CCc4ccccc42)C3)C[C@H]1C(N)=O (stereo partly shown) [1-163]

Continued, compound first:

SMILES | CAF (10 minutes/60 minutes) at 10 micromolar: 10 minutes | CAF (10 minutes/60 minutes) at 10 micromolar: 60 minutes
C=C(F)C(=O)N1CCN(c2nc(OC[C@@H]3CCCN3C)nc3c2CN(C2CCCc4cccc(Cl)c42)C3)C[C@@H]1CC#N (stereo partly drawn) [1-126, 2-[(2S)-4-[6-(8-chloro-1,2,3,4-tetrahydronaphthalen-1-yl)-2-{[(2S)-1-methylpyrrolidin-2-yl]methoxy}-5H,7H-pyrrolo[3,4-d]pyrimidin-4-yl]-1-(2-fluoroprop-2-enoyl)piperazin-2-yl]acetonitrile] | 53% | 88%
C=CC(=O)N1CCN(c2nc(OCCCN3CCOCC3)nc3c2CN(C2CCc4ccccc42)C3)C[C@@H]1CC#N (stereo partly shown) [1-131] | 76% | 97%
C=CC(=O)N1CCN(c2nc(OCc3ccccn3)nc3c2CN(C2CCc4ccccc42)C3)C[C@@H]1CC#N (stereo partly shown) [1-132] | 24% | 68%
C=CC(=O)N1CCN(c2nc(OCCN3CCOCC3)nc3c2CN(Cc2cc(O)ccc2Cl)C3)C[C@@H]1CC#N [1-134] | 98%/ 98% | 98%/ 98%
C=CC(=O)N1CCN(c2nc(O)nc3c2CN(C2CCc4ccccc42)C3)C[C@@H]1CC#N (stereo partly shown) [1-135] | 0% | 7%
C=CC(=O)N1CCN(c2nc(SC)nc3c2CN(C2CCc4ccccc42)C3)C[C@@H]1CC#N (stereo partly shown) [1-136] | 16% | 56%
C=C(F)C(=O)N1CCN(c2nc(OCc3cncn3C)nc3c2CN(C2CCc4ccccc42)C3)C[C@@H]1CC#N (stereo partly shown) [1-140] | 0%/ 0% | 0%/ 0%
C=CC(=O)N1CCN(c2nc(OC[C@@H]3CCCN3C)nc3c2CN(Cc2cccc4c2CCO4)C3)C[C@@H]1CC#N [1-143] | 48% | 70%
C=CC(=O)N1C2CCCC1CN(c1nc(OC[C@@H]3CCCN3C)nc3c1CN(Cc1cc(OC)ccc1Cl)C3)C2 [1-148] | 0%/ 0% | 0%/ 0%
C=CC(=O)N1C2CCCC1CN(c1nc(OC[C@@H]3CCCN3C)nc3c1CN(Cc1cc(O)ccc1Cl)C3)C2 [1-149] | 0% | 8%
C=CC(=O)N1CCN(c2nc(OC[C@@H]3CCCN3C)nc3c2CN(Cc2c(Cl)ccc4c2CCCO4)C3)C[C@@H]1CC#N [1-158] | 49% | 89%
C=CC(=O)N1CC2CCC1CN2c1nc(OC[C@@H]2CCCN2C)nc2c1CN(Cc1cc(O)ccc1Cl)C2 (stereo partly shown) [1-160] | 34% | 67%
C=CC(=O)N1CC2CCC1CN2c1nc(OC[C@@H]2CCCN2C)nc2c1CN(Cc1cc(OC)ccc1Cl)C2 (stereo partly shown) [1-161] | 0%/ 0% | 0%/ 0%
C=CC(=O)N1CCN(c2nc(OC[C@@H]3CCCN3C)nc3c2CN(Cc2cccc4ccccc24)C3)C[C@@H]1CC#N [1-164] | 93% | 95%
C=CC(=O)N1CCN(c2nc(OC[C@@H]3CCCN3C)nc3c2CN(Cc2cc(O)ccc2Cl)C3)CC1 [1-165] | 88% | 96%
C=CC(=O)N1CCN(c2nc(Oc3cccc4ccn(C)c34)nc3c2CN(C2CCc4ccccc42)C3)C[C@@H]1CC#N (stereo partly shown) [1-166] | 2% | 15%
C=C(F)C(=O)N1CCN(c2nc(OCCC(F)F)nc3c2CN(C2CCc4ccccc42)C3)C[C@@H]1CC#N (stereo partly shown) [1-167] |  | NA/ 0%
